Consider nine compounds from PubChem BioAssay (NCI).

Among the test systems are T-47D breast; ACHN renal; COLO 205 colon; SK-MEL-5 melanoma; NCI-H23 lung; BT-549 breast; 786-0 renal; IGROV1 ovarian; TK-10 renal; MOLT-4 leukemia; SN12C renal; LOX IMVI melanoma; MDA-MB-435; RXF 393 renal; NCI-H226 lung; OVCAR-5 ovarian; A498 renal.
Holding throughout (test): NCI-60 cell line screen, 48 h

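Protocol summary: plate cells (96-well), add compound at 5 concentrations, incubate 48 h, interpolate endpoints linearly. Definition used: TGI = concentration required for complete inhibition of growth.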

In the case of `CC(=O)NC1C(OCc2ccccc2)OC(CO)C(O)C1OCC(=O)NC(C)C(=O)NC(CCC(=O)OCCNC(=O)c1cccc2cc3ccccc3nc12)C(N)=O` (configuration not stated), the TGI turned out to be 54.6 µM with T-47D breast; 39.3 µM with ACHN renal; 64.8 µM in the assay with COLO 205 colon; 31.3 µM with SK-MEL-5 melanoma; 48.6 µM in the assay on NCI-H23 lung; 45.8 µM in the assay on BT-549 breast. Further, the TGI in the assay with 786-0 renal is 70.8 µM; with IGROV1 ovarian, 48.9 µM; with TK-10 renal it was 41.6 µM; in the assay on MOLT-4 leukemia, greater than 100 µM; in the assay on SN12C renal it was greater than 100 µM; in the assay on LOX IMVI melanoma it was 26.8 µM. The TGI in the assay with MDA-MB-435 came out at 42.4 µM; in the assay with RXF 393 renal it was 39.7 µM; in the assay with NCI-H226 lung it was 44.7 µM; in the assay on OVCAR-5 ovarian it was 69.3 µM.
`Cc1nnc2sc(-c3ccc(N)cc3)nn12`: the TGI with T-47D breast, with ACHN renal, in the assay with COLO 205 colon, in the assay with SK-MEL-5 melanoma, in the assay with NCI-H23 lung and in the assay with 786-0 renal was greater than 100 µM throughout. Also, the TGI in the assay with IGROV1 ovarian, in the assay on TK-10 renal, in the assay with MOLT-4 leukemia, in the assay on SN12C renal, in the assay on MDA-MB-435 and in the assay on RXF 393 renal was greater than 100 µM in each case. Besides, the TGI in the assay with NCI-H226 lung and in the assay on OVCAR-5 ovarian was greater than 100 µM each time.
Consider `Cc1ccc2c(c1)C(=O)C1(C2)Cc2ccc(C)cc2C1=O`, for which the TGI in the assay on T-47D breast, with ACHN renal, with SK-MEL-5 melanoma, with NCI-H23 lung, in the assay with 786-0 renal and in the assay with IGROV1 ovarian was greater than 100 µM each time. For the same compound, the TGI in the assay on A498 renal, in the assay on TK-10 renal, with MOLT-4 leukemia, with LOX IMVI melanoma, with MDA-MB-435 and with RXF 393 renal was greater than 100 µM throughout. The compound also gave a TGI in the assay on OVCAR-5 ovarian greater than 100 µM.
Consider `c1ccc(N=C2SC(c3ccccc3)CN2C23CC4CC(CC(C4)C2)C3)cc1` (configuration not stated), for which the TGI with ACHN renal, in the assay on COLO 205 colon, with SK-MEL-5 melanoma, in the assay on NCI-H23 lung, in the assay on BT-549 breast and with 786-0 renal was greater than 100 µM in each case. The TGI in the assay on IGROV1 ovarian, in the assay with A498 renal, with TK-10 renal, in the assay with MOLT-4 leukemia, with SN12C renal and in the assay with LOX IMVI melanoma was greater than 100 µM throughout. Besides, the TGI with MDA-MB-435, with RXF 393 renal, in the assay with NCI-H226 lung and in the assay on OVCAR-5 ovarian was greater than 100 µM each time.
Turning to `CC1(C)C2CCC1(C)C(NC(=O)CCN1CCOCC1)C2` (configuration not stated), the TGI in the assay with T-47D breast, in the assay on ACHN renal, with COLO 205 colon, in the assay with SK-MEL-5 melanoma, in the assay on NCI-H23 lung and in the assay on BT-549 breast was greater than 100 µM each time. Further, the TGI in the assay on 786-0 renal, with IGROV1 ovarian, with A498 renal, with TK-10 renal, with MOLT-4 leukemia and with SN12C renal was greater than 100 µM throughout. Also, the TGI in the assay with MDA-MB-435, in the assay with RXF 393 renal, in the assay with NCI-H226 lung and in the assay with OVCAR-5 ovarian was greater than 100 µM throughout.
As to `COC(=O)[C@@H]1C[C@H]2[C@H](c3ccccc3Br)[C@@H](OC(C)=O)[C@@H](OCc3ccccc3)ON2O1`, the TGI in the assay with T-47D breast, in the assay on ACHN renal, in the assay on COLO 205 colon, in the assay with SK-MEL-5 melanoma, with NCI-H23 lung and in the assay on BT-549 breast was greater than 100 µM throughout. For the same compound, the TGI in the assay on 786-0 renal, with IGROV1 ovarian, in the assay on TK-10 renal, with MOLT-4 leukemia, in the assay with SN12C renal and in the assay on LOX IMVI melanoma was greater than 100 µM throughout. The TGI in the assay on MDA-MB-435, with RXF 393 renal and in the assay on OVCAR-5 ovarian was greater than 100 µM each time.
Turning to `COC(=O)c1ccc(/C=N/c2cc(C)nn2-c2ccccc2)cc1`, the TGI in the assay with T-47D breast is 58 µM; in the assay on ACHN renal, greater than 100 µM; with COLO 205 colon it was 43 µM; with SK-MEL-5 melanoma it was 83.2 µM; with NCI-H23 lung, greater than 100 µM; with BT-549 breast, greater than 100 µM. Also, the TGI in the assay with 786-0 renal was greater than 100 µM; with IGROV1 ovarian, greater than 100 µM; in the assay with TK-10 renal, 6.18 µM; in the assay with MOLT-4 leukemia, greater than 100 µM; in the assay on SN12C renal, greater than 100 µM; in the assay on LOX IMVI melanoma it was greater than 100 µM. Further, the TGI was 96.6 µM with MDA-MB-435, greater than 100 µM with RXF 393 renal, greater than 100 µM in the assay with NCI-H226 lung and greater than 100 µM in the assay with OVCAR-5 ovarian.
For the compound `O=C(CCNC(=O)OCc1ccccc1)OCCCNC(=O)OCc1ccccc1`, the TGI in the assay on T-47D breast, in the assay with ACHN renal, in the assay on COLO 205 colon, in the assay with SK-MEL-5 melanoma, in the assay with NCI-H23 lung and with BT-549 breast was greater than 100 µM in each case. Further, the TGI in the assay on 786-0 renal, in the assay on IGROV1 ovarian, in the assay on TK-10 renal, in the assay with MOLT-4 leukemia, in the assay with SN12C renal and with LOX IMVI melanoma was greater than 100 µM each time. The TGI with MDA-MB-435, in the assay with RXF 393 renal, in the assay on NCI-H226 lung and in the assay with OVCAR-5 ovarian was greater than 100 µM each time.
Consider `O=C(C1=CCC2(CC1)OCCO2)N(Cc1ccccc1)c1ccccc1I`, for which the TGI was 59.7 µM in the assay with T-47D breast; 43.2 µM with ACHN renal; 36.5 µM with COLO 205 colon; 30.1 µM with SK-MEL-5 melanoma; 44.1 µM in the assay with NCI-H23 lung; 43 µM in the assay with 786-0 renal. Besides, the TGI in the assay with A498 renal was 51.9 µM; in the assay with TK-10 renal, 44.5 µM; in the assay with MOLT-4 leukemia, greater than 100 µM; with SN12C renal, 56 µM; in the assay with LOX IMVI melanoma, 56.8 µM; in the assay with MDA-MB-435, 50.7 µM. Also, the figures for the TGI with RXF 393 renal, with NCI-H226 lung and in the assay on OVCAR-5 ovarian were 77.6 µM, 34.8 µM and 36.7 µM, respectively.
